Data reported in patent EP1377579B1 (Aventis Pharmaceuticals Inc., priority 2000, dated 2002).
Structures can show the parent of a compound that is named as a salt.

Experiments:
PC-3 = experiment: In vitro proliferation assay (MTT), PC-3; type: cell-based, human; details: Homo sapiens, PC-3, MTT assay; value (SD, n) where given; read-out: PC-3 Prostate (IC50 µM)
Method: (§1) The proliferation of tumor cells can be measured using a tetrazolium salt-based assay known as the MTT (3-[4,5-Dimethylthiazol-2-yl]-2,5-diphenyltetrazolium bromide) assay. […] For the assay, the cell lines are plated onto 96 well plates at 1000 to 2500 cells/well (depending on the properties of the individual cell lines), left to attach and recover overnight. […] After 3 days, the cells are incubated with MTT dye (3-[4,5-Dimethylthiazol-2-yl]-2,5-diphenyltetrazolium bromide, Sigma # M5655, 10 mg/ml in Hank's Buffered Saline) to estimate the amount of live cells remaining vs. concentration for the test compounds. […] The MTT and culture medium is then removed from the cultures and 200 µl of DMSO is added to solubilize the dye from the cell layer. The absorbance at 570 nm is determined for each culture using a Spectramax plate reader (Molecular Devices).
(§2) IC50s were determined from the raw data from either the MTT or SRB assays.
(§3) All of the cell lines were obtained from American Type Tissue Collection, with the ATCC accession number in parentheticals. MCF-7 and MDA-MB-231 cells were grown in improved minimum essential medium (Biofluids) without phenol red, supplemented with 5 % fetal bovine serum, 0.01 mg/ml gentamicin and 3 mM L-glutamine.

MDA-MB-435 = experiment: In vitro proliferation assay (MTT), MDA-MB-435; type: cell-based, human; details: Homo sapiens, MDA-MB-435, MTT assay; value (SD, n) where given; read-out: MB-435 Breast (IC50 µM)
Method: as §1, §2, §3

cdk2/cyclin E = cdk2/cyclin E (Homo sapiens, UniProt P24941); experiment: Cyclin-dependent kinase assay, cdk2/cyclin E; details: CDK2 IC50, nM, GST-pRb substrate, 10 µM ATP
cdk4/cyclin D1 = cdk4/cyclin D1 (Homo sapiens, UniProt P11802); experiment: Cyclin-dependent kinase assay, cdk4/cyclin D1; type: biochemical; details: cyclin D1/cdk4; GST-pRb substrate, 10 µM ATP
cdk1/cyclin B = cdk1/cyclin B (Homo sapiens, UniProt P06493); experiment: Cyclin-dependent kinase assay, cdk1/cyclin B; details: CDK1 IC50, nM, Histone H1, 10 µM ATP
Sequence of cdk1/cyclin B (P06493 whole entry): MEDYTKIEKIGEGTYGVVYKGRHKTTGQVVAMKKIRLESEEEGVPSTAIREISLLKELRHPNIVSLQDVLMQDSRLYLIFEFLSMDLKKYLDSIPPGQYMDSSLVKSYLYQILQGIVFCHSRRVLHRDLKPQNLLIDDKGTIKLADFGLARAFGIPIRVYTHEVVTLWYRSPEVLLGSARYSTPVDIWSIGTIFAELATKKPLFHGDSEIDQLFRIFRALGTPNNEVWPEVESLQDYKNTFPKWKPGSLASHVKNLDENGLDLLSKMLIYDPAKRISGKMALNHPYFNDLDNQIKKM
Sequence of cdk1/cyclin B (P14635 whole entry partner): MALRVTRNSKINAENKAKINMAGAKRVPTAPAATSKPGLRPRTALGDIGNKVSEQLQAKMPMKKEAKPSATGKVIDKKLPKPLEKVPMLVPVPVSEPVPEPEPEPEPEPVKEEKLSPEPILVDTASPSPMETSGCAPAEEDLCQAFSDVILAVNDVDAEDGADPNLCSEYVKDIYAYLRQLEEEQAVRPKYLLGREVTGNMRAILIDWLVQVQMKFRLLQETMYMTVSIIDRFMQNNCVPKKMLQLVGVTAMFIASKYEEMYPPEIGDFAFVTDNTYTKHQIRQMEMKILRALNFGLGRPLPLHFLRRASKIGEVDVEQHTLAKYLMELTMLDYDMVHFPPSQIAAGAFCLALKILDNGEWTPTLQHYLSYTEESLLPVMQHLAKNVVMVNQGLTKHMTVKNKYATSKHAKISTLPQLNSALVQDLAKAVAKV

Sequence of cdk4/cyclin D1 (P11802 whole entry): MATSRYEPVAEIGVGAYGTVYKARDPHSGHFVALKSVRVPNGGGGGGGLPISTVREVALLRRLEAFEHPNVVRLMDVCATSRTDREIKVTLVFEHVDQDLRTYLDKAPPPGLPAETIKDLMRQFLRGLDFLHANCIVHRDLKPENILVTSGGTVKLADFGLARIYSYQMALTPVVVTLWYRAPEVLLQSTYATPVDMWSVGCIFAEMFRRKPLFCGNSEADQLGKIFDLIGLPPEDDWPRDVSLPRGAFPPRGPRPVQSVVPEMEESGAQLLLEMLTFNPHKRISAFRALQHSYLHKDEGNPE
Sequence of cdk4/cyclin D1 (P24385 whole entry partner): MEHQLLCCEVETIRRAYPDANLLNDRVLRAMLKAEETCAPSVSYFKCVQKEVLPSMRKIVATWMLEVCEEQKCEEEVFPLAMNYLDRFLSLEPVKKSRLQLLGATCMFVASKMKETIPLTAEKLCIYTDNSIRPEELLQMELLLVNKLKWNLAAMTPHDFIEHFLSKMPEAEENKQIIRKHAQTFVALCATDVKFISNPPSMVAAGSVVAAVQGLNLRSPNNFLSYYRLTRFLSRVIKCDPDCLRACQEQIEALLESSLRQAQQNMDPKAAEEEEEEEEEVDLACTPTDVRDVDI

IC50 (PC-3) [µM]	IC50 (MDA-MB-435) [µM]	IC50 (cdk2/cyclin E) [nM]	IC50 (cdk4/cyclin D1) [nM]	IC50 (cdk1/cyclin B) [nM]	Structure (SMILES)
1.65	1.52	–	–	–	CCCCC(CC)COC(=O)N1CCC(Nc2nc(N[C@H]3CC[C@H](N)CC3)nc3c2ncn3C2CCCC2)CC1 (mixture of isomers) [compound 97, (±)-trans-4-[2-(4-Amino-cyclohexylamino)-9-cyclopentyl-9H-purin-6-ylamino]-piperidine-1-carboxylic acid 2-ethyl-hexyl ester dihydrochloride]
2.55	2.89	364	373	197	N[C@H]1CC[C@H](Nc2nc(NC3CCN(C(=O)c4ccccc4Br)CC3)c3ncn(C4CCCC4)c3n2)CC1 [compound 13, trans-1-{4-[2-(4-Amino-cyclohexylamino)-9-cyclopentyl-9H-purin-6-ylamino]-piperidin-1-yl}-1-(2-bromo-phenyl)-methanone]
0.27	0.24	80	–	31	COc1cc(COC(=O)N2CCC(Nc3nc(N[C@H]4CC[C@H](N)CC4)nc4c3ncn4C3CCCC3)CC2)c([N+](=O)[O-])cc1OC [compound 101, trans-4-[2-(4-Amino-cyclohexylamino)-9-cyclopentyl-9H-purin-6-ylamino]-piperidine-1-carboxylic acid 4,5-dimethoxy-2-nitro-benzyl ester dihydrochloride]
0.44	0.51	–	–	–	CC(C)(C)COC(=O)N1CCC(Nc2nc(N[C@H]3CC[C@H](N)CC3)nc3c2ncn3C2CCCC2)CC1 [compound 103, trans-4-[2-(4-Amino-cyclohexylamino)-9-cyclopentyl-9H-purin-6-ylamino]-piperidine-1-carboxylic acid 2,2-dimethyl-propyl ester dihydrochloride]
0.57	0.49	7	–	–	N[C@H]1CC[C@H](Nc2nc(NC3CCN(S(=O)(=O)c4cccs4)CC3)c3ncn(C4CCCC4)c3n2)CC1 [compound 128, trans-N^2&-(4-Amino-cyclohexyl)-9-cyclopentyl-N^6-[1-(thiophene-2-sulfonyl)-piperidin-4-yl]-9H-purine-2,6-diamine dihydrochloride]
–	–	28	74	20	Cc1cccc(NC(=O)N2CCC(Nc3nc(N[C@H]4CC[C@H](N)CC4)nc4c3ncn4C3CCCC3)CC2)c1 [compound 210, trans-4-[2-(4-Amino-cyclohexylamino)-9-cyclopentyl-9H-purin-6-ylamino]-piperidine-1-carboxylic acid (3-methyl-phenyl)-amide dihydrochloride]

Further lines, the compound ahead of its results:

Structure (SMILES)	IC50 (PC-3) [µM]	IC50 (MDA-MB-435) [µM]	IC50 (cdk2/cyclin E) [nM]	IC50 (cdk4/cyclin D1) [nM]	IC50 (cdk1/cyclin B) [nM]
NC1CCC(Nc2nc(NC3CCN(C(=O)C4CC4c4ccccc4)CC3)c3ncn(C4CCCC4)c3n2)CC1 (racemic) [compound 43, (±)-trans-1-{4-[2-(4-Amino-cyclohexylamino)-9-cyclopentyl-9H-purin-6-ylamino]-piperidin-1-y1}-1-(2-phenyl-cyclopropyl)-methanone dihydrochloride]	0.59	0.47	77	–	–
N[C@H]1CC[C@H](Nc2nc(NC3CCN(C(=O)C(O)c4ccccc4)CC3)c3ncn(C4CCCC4)c3n2)CC1 (mixture of isomers) [compound 50, (±)-trans-1-{4-[2-(4-Amino-cyclohexylamino)-9-cyclopentyl-9H-purin-6-ylamino]-piperidin-1-yl}-2-hydroxy-2-phenyl-ethanone dihydrochloride]	1.58	1.67	44	206	43
CCCCC(CC)C(=O)N1CCC(Nc2nc(N[C@H]3CC[C@H](N)CC3)nc3c2ncn3C2CCCC2)CC1 (mixture of isomers) [compound 57, (±)-trans-1-{4-[2-(4-Amino-cyclohexylamino)-9-cyclopentyl-9H-purin-6-ylamino]-piperidin-1-yl}-2-ethyl-hexan-1-one dihydrochloride]	1.13	0.96	480	1300	193
N[C@H]1CC[C@H](Nc2nc(NC3CCN(C(=O)NC4CC4c4ccccc4)CC3)c3ncn(C4CCCC4)c3n2)CC1 (mixture of isomers) [compound 156, (±)-trans-4-[2-(4-Amino-cyclohexylamino)-9-cyclopentyl-9H-purin-6-ylamino]-piperidine-1-carboxylic acid (2-phenyl-cyclopropyl)-amide dihydrochloride]	0.39	0.28	79	1620	75
N[C@H]1CC[C@H](Nc2nc(NC3CCN(C(=O)c4c(Cl)cccc4Cl)CC3)c3ncn(C4CCCC4)c3n2)CC1 [compound 14, trans-1-{4-[2-(4-Amino-cyclohexylamino)-9-cyclopentyl-9H-purin-6-ylamino]-piperidin-1-yl}-1-(2,6-dichloro-phenyl)-methanone]	2.99	2.98	514	17	164
N[C@H]1CC[C@H](Nc2nc(NC3CCN(C(=O)c4ccc(Cl)c(Cl)c4)CC3)c3ncn(C4CCCC4)c3n2)CC1 [compound 15, trans-1-{4-[2-(4-Amino-cyclohexylamino)-9-cyclopentyl-9H-purin-6-ylamino]-piperidin-1-yl}-1-(3,4-dichloro-phenyl)-methanone]	0.74	0.67	291	732	61
CCCCc1ccc(C(=O)N2CCC(Nc3nc(N[C@H]4CC[C@H](N)CC4)nc4c3ncn4C3CCCC3)CC2)cc1 [compound 21, trans-1-{4-[2-(4-Amino-cyclohexylamino)-9-cyclopentyl-9H-puxin-6-ylamino]-piperidin-1-yl}-1-(4-butyl-phenyl)-methanone]	1.45	1.43	121	–	–
CCCCCCCc1ccc(C(=O)N2CCC(Nc3nc(N[C@H]4CC[C@H](N)CC4)nc4c3ncn4C3CCCC3)CC2)cc1 [compound 24, trans-1-{4-[2-(4-Amino-cyclohexylamino)-9-cyclopentyl-9H-purin-6-ylamino]-piperidin-1-yl}-1-(4-heptyl-phenyl)-methanone]	3.97	2.18	–	–	–
N[C@H]1CC[C@H](Nc2nc(NC3CCN(C(=O)c4ccc([N+](=O)[O-])cc4)CC3)c3ncn(C4CCCC4)c3n2)CC1 [compound 27, trans-1-{4-[2-(4-Amino-cyclohexylamino)-9-cyclopentyl-9H-purin-6-ylamino]-piperidin-1-yl}-1-(4-nitro-phenyl)-methanone]	2	1.73	–	–	–
CC(C)=CC(=O)N1CCC(Nc2nc(N[C@H]3CC[C@H](N)CC3)nc3c2ncn3C2CCCC2)CC1 [compound 30, trans 1-{4-[2-(4-Amino-cyclohexylamino)-9-cyclopentyl-9#H!-purin-6-ylamino]-piperidin-1-yl}-3-methyl-but-2-en-1-one dihydrochloride]	0.8	0.75	77	–	–
N[C@H]1CC[C@H](Nc2nc(NC3CCN(C(=O)/C=C/c4ccccc4)CC3)c3ncn(C4CCCC4)c3n2)CC1 [compound 62, trans-(E)-1-{4-[2-(4-Amino-cyclohexylamino)-9-cyclopentyl-9H-purin-6-ylamino]-piperidin-1-yl}-3-phenyl-propenone dihydrochloride]	–	–	66	–	–
N[C@H]1CC[C@H](Nc2nc(NC3CCN(C(=O)OCc4ccccc4)CC3)c3ncn(C4CCCC4)c3n2)CC1 [compound 90, trans-4-[2-(4-Amino-cyclohexylamino)-9-cyclopentyl-9H-purin-6-ylamino]-piperidine-1-carboxylic acid benzyl ester dihydrochloride]	0.58	0.38	–	–	–
CC(C)COC(=O)N1CCC(Nc2nc(N[C@H]3CC[C@H](N)CC3)nc3c2ncn3C2CCCC2)CC1 [compound 91, trans-4-[2-(4-Amino-cyclohexylamino)-9-cyclopentyl-9H-purin-6-ylamino]-piperidine-1-carboxylic acid isobutyl ester dihydrochloride]	0.37	0.36	–	–	–
CCCOC(=O)N1CCC(Nc2nc(N[C@H]3CC[C@H](N)CC3)nc3c2ncn3C2CCCC2)CC1 [compound 96, trans-4-[2-(4-Amino-cyclohexylamino)-9-cyclopentyl-9H-purin-6-ylamino]-piperidine-1-carboxylic acid propyl ester dihydrochloride]	0.35	0.35	–	–	–
CCCCCCOC(=O)N1CCC(Nc2nc(N[C@H]3CC[C@H](N)CC3)nc3c2ncn3C2CCCC2)CC1 [compound 98, trans-4-[2-(4-Amino-cyclohexylamino)-9-cyclopentyl-9H-purin-6-ylamino]-piperidine-1-carboxylic acid hexyl ester dihydrochloride]	0.82	0.66	–	–	–
